Experiments:
[1] = Microsomal stability (liver microsomal assay, mixed cofactors); predicted hepatic clearance; format: in vitro ADME; conditions: liver microsomes 1.0 mg protein/mL (+UDPGA +NADPH), 1 μM analyte, 37° C.; scaled with human liver weight and hepatic blood flow 1.3 L/hr/kg
Protocol: Metabolic stability of compounds was assessed using human or rat liver microsomal assays (Corning). In these assays, 10 nL of each analyte at a concentration of 1 mM in 100% DMSO was dispensed into a well of a polypropylene plates using the Echo 550 acoustic liquid dispenser (Labcyte®). Each plate contained 384 wells with a single analyte in each well.
A solution of human (Corning® Gentest™ Human Mixed Pooled Microsomes or rat (Corning® Gentest™ Rat [Sprague-Dawley] Pooled Liver Microsomes) liver microsomes at 2 mg/ml in 100 mM K2HPO4/KH2PO4 at pH 7. 4 was combined with alamethicin from Trichoderma viride (Sigma-Aldrich) 0.0225 mg/ml. The mixture was incubated on ice for 15 minutes. 5 μL of this mixture was added to individual wells following a 15 minute incubation at room temperature and supplemented with 5 μL NADPH Regenerating Solution of cofactors (Corning® Gentest™ UGT Reaction Mix) containing 100 mM K2HPO4/KH2PO4 at pH 7.4, 2.6 mM NADP+, 6.6 mM glucose-6-phosphate, 6.6 mM MgCl2, 0.8 U/mL glucose-6-phosphate dehydrogenase, 0.1 mM sodium citrate, and 6.8 mM uridine diphosphate-glucuronic acid. The final concentration of each analyte compound at the beginning of the reaction was 1 μM. The reactions were incubated at 37° C. and samples were collected at time points of 0, 5, 15, 30, 40, 50, 60, and 70 minutes for further analysis. Background data were collected using reactions without analyte compounds.
Upon collection of the sample time points, samples were quenched with 30 μL of a solution of 72% acetonitrile, 8% methanol, 0.1% formic acid, 19.9% water, and internal standard (IS). Reaction plates were spun in a centrifuge at speed of 4,000 rcf for 30 minutes at 4° C., following a dilution of the 10 μL quenched reaction into 40 μL de-ionized water, yielding assay plates.
Assay plates were analyzed using solid-state extraction coupled with quadrupole time-of-flight mass spectrometer, using Agilent QToF 6530 RapidFire 360 system, with C4 type A solid state cartridges. Analysis was performed in either positive or negative ionization modes. Mobile phases contained 0.1% formic acid in water for loading analytes onto solid state extraction cartridges and 0.1% formic acid in acetonitrile for elution into a mass spectrometer in positive ionization mode, or 0.1% acetic acid in water for loading and 0.1% acetic acid in acetonitrile for extraction in negative ionization mode. Peak-area ratios of integrated counts for individual compounds to IS were plotted as semi-logarithmic chart of log vs time. The initial linear portion of decay was fitted to a linear regression equation to derive the half-time of analyte decay.
Pharmacological parameters for an analyte compound metabolism were calculated using the following equations: […]
wherein concentration refers to the protein concentration (mg/ml) in the reaction.
This scales the in vitro intrinsic clearance up to the value that would be predicted for the entire mass of liver tissue (but with no restriction by blood flow). The value depends upon the size of the liver (species-dependent) and the yield of microsomal protein as appropriate (assumed to be species-independent).
Hepatic clearance will depend upon the inter-relationship of intrinsic clearance and hepatic blood flow and was predicted from in vitro data using a variety of approaches.
The hepatic extraction is reported as the predicted clearance expressed as a proportion of hepatic blood flow.

GLP-1R = GLP-1R (Homo sapiens (Human), UniProt P43220); assay: GLP-1R activation: cAMP increase in CHO cells stably expressing GLP-1R; format: cell-based; conditions: cAMP increase, 10 point dose response, 30 minutes incubation at 37° C., read-out: EC50
GLP-1R, sequence (P43220 24-463): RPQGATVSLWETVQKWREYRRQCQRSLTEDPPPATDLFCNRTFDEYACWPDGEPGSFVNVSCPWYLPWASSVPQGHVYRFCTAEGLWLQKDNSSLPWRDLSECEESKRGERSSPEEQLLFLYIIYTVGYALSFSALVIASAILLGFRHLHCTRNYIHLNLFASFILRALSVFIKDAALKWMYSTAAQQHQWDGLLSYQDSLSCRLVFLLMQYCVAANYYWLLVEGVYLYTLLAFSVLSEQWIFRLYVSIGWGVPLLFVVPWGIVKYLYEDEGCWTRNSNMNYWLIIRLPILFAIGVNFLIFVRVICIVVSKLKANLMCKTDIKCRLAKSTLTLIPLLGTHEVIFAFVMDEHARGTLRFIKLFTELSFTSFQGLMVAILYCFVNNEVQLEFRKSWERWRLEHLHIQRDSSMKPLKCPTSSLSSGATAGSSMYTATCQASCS
Protocol: GLP-1R activation by a compound of the present disclosure was quantified by measuring cAMP increase in CHO cells stably expressing GLP-1R (MultiSpan product #C1267-1a). […] The cells were then incubated overnight at 37° C., 5% CO2. […] 1% BSA (Rockland Immunochemicals product #BSA-1000)). Following the medium change, the cells were incubated for 1 hour at 37° C., 5% CO2. The tested GLP-1 compound was added to the cells in a 10 point dose response followed by a 30 minutes incubation at 37° C., 5% CO2. cAMP concentration increase was then detected using Cisbio's cAMP Gs Dynamic Kit (product #62AM4PEC) according to the manufacturer's protocol. The response was plotted against the log of the agonist concentration and fitted to a sigmoidal equation to determine the EC50.

Molecule	Predicted Hepatic Clearance (Pred. Cl.) [1] [mL/min/kg]	EC50 (GLP-1R) [nM]
2-[[4-[2-(5- Chloro-2-pyridyl)- 2-methyl-1,3- benzodioxol-4- yl]triazol-1- yl]methyl]-3-(2- methoxyethyl) bencarboxylic acid [Example 104]	13	3030
COCCn1c(Cc2c(F)cc(-c3cccc4c3OC(C)(c3ccc(Cl)cc3F)O4)cc2F)nc2ccc(C(=O)NS(=O)(=O)C3CC3)cc21 (racemic) [Example 3, 2-(4-(2-(4-chloro-2-fluorophenyl)-2-methylbenzo[d][1, 3]dioxol-4-yl)-2,6-difluorobenzyl)-N-(cyclopropylsulfonyl)-1-(2-methoxyethyl)-1H-benzo[d]imidazole-6-carboxamide]	2	78
COCCn1c(Cc2ccc(-c3cccc4c3OC(c3ccccc3)O4)cc2F)nc2ccc(C(=O)O)cc21 (single isomer, unassigned) [Example 35, 2-(2-fluoro-4-(2-phenylbenzo[d][1, 3]dioxol-4-yl)benzyl)-1-(2-methoxyethyl)-1H-benzo[d]imidazole-6-carboxylic acid]	2.83	646
COCCn1c(Cc2ccc(-c3cccc4c3OC(c3ccccc3)O4)cc2F)nc2ccc(C(=O)O)cc21 (single isomer, unassigned) [Example 36, 2-(2-fluoro-4-(2-phenylbenzo[d][1, 3]dioxol-4-yl)benzyl)-1-(2-methoxyethyl)-1H-benzo[d]imidazole-6-carboxylic acid]	8.67	242
N#Cc1ccc(C2Oc3cccc(-c4cc(F)c(Cc5nc6ccc(C(=O)O)cc6n5C[C@@H]5CCO5)c(F)c4)c3O2)c(F)c1 (single isomer, unassigned) [Example 41]	2.83	438
N#Cc1ccc(C2Oc3cccc(-c4cc(F)c(Cc5nc6ccc(C(=O)O)cc6n5C[C@@H]5CCO5)c(F)c4)c3O2)c(F)c1 (single isomer, unassigned) [Example 42]	3.83	1.1
CC1(c2ccc(Cl)cc2F)Oc2cccc(-c3cc(F)c(Cc4nc5ccc(C(=O)O)cc5n4C[C@@H]4CCO4)cc3F)c2O1 (single isomer, unassigned) [Example 43]	4.67	7.4
CC1(c2ccc(Cl)cc2F)Oc2cccc(-c3cc(F)c(Cc4nc5ccc(C(=O)O)cc5n4C[C@@H]4CCO4)cc3F)c2O1 (single isomer, unassigned) [Example 44]	4.83	0.033
CC1(c2ccc(Cl)cn2)Oc2cccc(-c3cc(F)c(Cc4nc5ccc(C(=O)O)cc5n4C[C@@H]4CCO4)cc3F)c2O1 (single isomer, unassigned) [Example 45]	5	0.19
CC1(c2ccc(Cl)cc2F)Oc2cccc(-c3ccc(Cc4nc5ccc(C(=O)O)cc5n4CC4(n5ccnn5)CC4)c(F)c3)c2O1 (centres unmarked) [Example 51, 1-((1-(1H-1,2,3-triazol-1-yl)cyclopropyl)methyl)-2-(4-(2-(4-chloro-2-fluorophenyl)-2-methylbenzo[d][1, 3]dioxol-4-yl)-2-fluorobenzyl)-1H-benzo[d]imidazole-6-carboxylic acid]	2.5	
COCCn1c(Cc2cc(-c3cccc4c3OC(C)(c3ccc(Cl)cc3F)O4)cs2)nc2ccc(C(=O)O)cc21 (centres unmarked) [Example 59, 2-((4-(2-(4-chloro-2-fluorophenyl)-2-methylbenzo[d][1, 3]dioxol-4-yl)thiophen-2-yl)methyl)-1-(2-methoxyethyl)-1H-benzo[d]imidazole-6-carboxylic acid]		1620
CC1(c2ccc(Cl)cc2F)Oc2cccc(-c3cc(F)c(Cc4nc5ccc(C(=O)O)cc5n4CCS(C)(=O)=O)c(F)c3)c2O1 (centres unmarked) [Example 82, 2-[[4-[2-(4-chloro-2-fluoro-phenyl)-2-methyl-1,3-benzodioxol-4-yl]-2,6-difluoro-phenyl]methyl]-3-(2-methylsulfonylethyl) benzimidazole-5-carboxylic acid]		20
COCCn1c(Cc2cc(F)c(-c3cccc4c3OC(C)(c3ccc(Cl)cn3)O4)cc2F)nc2ccc(C(=O)O)cc21 (centres unmarked) [Example 114, 2-[[4-[2-(5-chloro-2-pyridyl)-2-methyl-1,3-benzodioxol-4-yl]-2,5-difluoro-phenyl]methyl]-3-(2-methoxyethyl) benzimidazole-5-carboxylic acid]	7.67	

Results, then the molecule that gave them:

Predicted Hepatic Clearance (Pred. Cl.) [1] [mL/min/kg]	EC50 (GLP-1R) [nM]	Molecule
2.67	53	COCCn1c(Cc2ccc(-c3cccc4c3OC(c3ccc(C#N)cc3F)O4)cc2F)nc2ccc(C(=O)O)cc21 (single isomer, unassigned) [Example 33, 2-(4-(2-(4-cyano-2-fluorophenyl)benzo [d][1,3]dioxol-4-yl)-2-fluorobenzyl)-1-(2-methoxyethyl)-1H-benzo[d]imidazole-6-carboxylic acid]
4.17	350	COCCn1c(Cc2ccc(-c3cccc4c3OC(c3ccc(C#N)cc3F)O4)cc2F)nc2ccc(C(=O)O)cc21 (single isomer, unassigned) [Example 34]
3.83	1000	COCCn1c(Cc2c(F)cc(-c3cccc4c3OC(c3ccc(C#N)cc3F)O4)cc2F)nc2ccc(C(=O)O)cc21 (single isomer, unassigned) [Example 37, 2-(4-(2-(4-cyano-2-fluorophenyl)benzo [d][1,3]dioxol-4-yl)-2,6-difluorobenzyl)-1-(2-methoxyethyl)-1H-benzo[d]imidazole-6-carboxylic acid]
4	37	COCCn1c(Cc2c(F)cc(-c3cccc4c3OC(c3ccc(C#N)cc3F)O4)cc2F)nc2ccc(C(=O)O)cc21 (single isomer, unassigned) [Example 38, 2-(4-(2-(4-cyano-2-fluorophenyl)benzo [d][1,3]dioxol-4-yl)-2,6-difluorobenzyl)-1-(2-methoxyethyl)-1H-benzo[d]imidazole-6-carboxylic acid]
3.17	49	COCCn1c(Cc2cc(F)c(-c3cccc4c3OC(c3ccc(C#N)cc3F)O4)cc2F)nc2ccc(C(=O)O)cc21 (single isomer, unassigned) [Example 39, 2-(4-(2-(4-cyano-2-fluorophenyl)benzo [d][1,3]dioxol-4-yl)-2,5-difluorobenzyl)-1-(2-methoxyethyl)-1H-benzo[d]imidazole-6-carboxylic acid]
5	1230	COCCn1c(Cc2cc(F)c(-c3cccc4c3OC(c3ccc(C#N)cc3F)O4)cc2F)nc2ccc(C(=O)O)cc21 (single isomer, unassigned) [Example 40, 2-(4-(2-(4-cyano-2-fluorophenyl)benzo [d][1,3]dioxol-4-yl)-2,5-difluorobenzyl)-1-(2-methoxyethyl)-1H-benzo[d]imidazole-6-carboxylic acid]
5.83		COCCn1c(Cc2cc(F)c(-c3cccc4c3OC(C)(c3ccc(Cl)cc3F)O4)cc2F)nc2ccc(C(=O)O)cc21 (centres unmarked) [Example 113, 2-[[4-[2-(4-chloro-2-fluoro-phenyl)-2-methyl-1,3-benzodioxol-4-yl]-2,5-difluoro-phenyl]methyl]-3-(2-methoxyethyl) benzimidazole-5-carboxylic acid]
